Results on 1 substance are retold here after patent publication US7820629B2, “Galactose derivative, drug carrier and medicinal composition” (Nippon Shinyaku Co., Ltd., priority 2006, dated 2010).

In the assay the test system is HuH-7 cells (human hepatoma cell line). As to the kind of experiment: Evaluation of liver-targeting: uptake of tritium-labeled siRNA composition. The format is cell-based. To be noted: carriers of Examples 2 to 6 or Comparative Example 1 with tritium-labeled siRNA 100 nM, eight hours, by content (mg) of the Example 1 derivative. The protocol: (1) Preparation of a Nucleic Acid Solution
A nucleic acid solution containing a tritium-labeled siRNA composed of an oligo RNA having a sequence of SEQ ID NO 1 and an oligo RNA having a sequence of SEQ ID NO 2 was prepared by introducing tritium-labeled [2,5′,8-3H]adenosine 5′-triphosphate ammonium salt (manufactured by Amersham Bioscience), using in-vitro Transcription T7 Kit (manufactured by Takara Bio). The siRNA concentration in the nucleic acid solution was 20 μM. The specific activity was 6.4×10^5 dpm/μg.
341.25 μL of a nucleic acid solution containing 20 μM of a tritium-unlabeled siRNA composed of an oligo RNA having a sequence of SEQ ID NO 1 and an oligo RNA having a sequence of SEQ ID NO 2 was added to 8.75 μL of the nucleic acid solution prepared in the above step, thereby preparing a nucleic acid solution having a specific activity of 1.6×10^4 dpm/μg.
(2) Preparation of a Composition […]
HuH-7 cells (human hepatoma cell line) were seeded on a 6-well plate at 2.5×10^5 cells/well, and were incubated for 18 hours at 37° C. under 5% CO2. […] 4 mL of a liquid scintillation cocktail (Emulsifier Scintillator Plus, manufactured by Perkin Elmer) was added to each of the vials and mixed well, and the radioactivity was counted with a liquid scintillation counter (manufactured by Perkin Elmer).

“N-[1-(D)-deoxylactito-1-yl]oleamide [Example 1]”: the “liver-targeting potency (radioactivity of cells, FIG. 1)” value is listed as “increases depending on the content”.
